The record followed here is patent publication US8173813B2, “Quinolone and tetrahydroquinolone and related compounds having NOS inhibitory activity” (NeurAxon, Inc., priority 2007, dated 2012).

The term pIC50 denotes −log10 of the IC50, conventionally taken in molar units.

pIC50: −log10 of the molar value. Where two headings read alike, the source gives them in different places. A value given as a limit tells only on which side of the number the result lay.

Holding throughout (type): biochemical
For assay [1], the target named is Nitric oxide synthase (neuronal, human recombinant) nNOS (Homo sapiens, UniProt P29475). The experiment in a line: Human nNOS enzyme assay ([3H]L-arginine to [3H]L-citrulline). The following applies: for pIC50: read-out: hnNOS IC50.
The target in assay [2] is Recombinant human inducible NOS (iNOS) (Homo sapiens, UniProt P35228). The experiment in a line: Human iNOS enzyme assay, radiometric. The following applies: human recombinant iNOS; values without parentheses; read-out: hiNOS IC50.
Assay [3] deals with Nitric oxide synthase (endothelial, human recombinant) eNOS (Homo sapiens, UniProt P29474). The experiment in a line: Human eNOS enzyme assay ([3H]L-arginine to [3H]L-citrulline). The following applies: read-out: heNOS IC50.
[4] abbreviates: human enzymes, ratio of eNOS IC50 to nNOS IC50.
Setting [5] is: human recombinant nNOS, values without parentheses.
Setting [6] is: human recombinant eNOS, values without parentheses.

Recombinant human inducible NOS (iNOS), sequence (P35228 whole entry): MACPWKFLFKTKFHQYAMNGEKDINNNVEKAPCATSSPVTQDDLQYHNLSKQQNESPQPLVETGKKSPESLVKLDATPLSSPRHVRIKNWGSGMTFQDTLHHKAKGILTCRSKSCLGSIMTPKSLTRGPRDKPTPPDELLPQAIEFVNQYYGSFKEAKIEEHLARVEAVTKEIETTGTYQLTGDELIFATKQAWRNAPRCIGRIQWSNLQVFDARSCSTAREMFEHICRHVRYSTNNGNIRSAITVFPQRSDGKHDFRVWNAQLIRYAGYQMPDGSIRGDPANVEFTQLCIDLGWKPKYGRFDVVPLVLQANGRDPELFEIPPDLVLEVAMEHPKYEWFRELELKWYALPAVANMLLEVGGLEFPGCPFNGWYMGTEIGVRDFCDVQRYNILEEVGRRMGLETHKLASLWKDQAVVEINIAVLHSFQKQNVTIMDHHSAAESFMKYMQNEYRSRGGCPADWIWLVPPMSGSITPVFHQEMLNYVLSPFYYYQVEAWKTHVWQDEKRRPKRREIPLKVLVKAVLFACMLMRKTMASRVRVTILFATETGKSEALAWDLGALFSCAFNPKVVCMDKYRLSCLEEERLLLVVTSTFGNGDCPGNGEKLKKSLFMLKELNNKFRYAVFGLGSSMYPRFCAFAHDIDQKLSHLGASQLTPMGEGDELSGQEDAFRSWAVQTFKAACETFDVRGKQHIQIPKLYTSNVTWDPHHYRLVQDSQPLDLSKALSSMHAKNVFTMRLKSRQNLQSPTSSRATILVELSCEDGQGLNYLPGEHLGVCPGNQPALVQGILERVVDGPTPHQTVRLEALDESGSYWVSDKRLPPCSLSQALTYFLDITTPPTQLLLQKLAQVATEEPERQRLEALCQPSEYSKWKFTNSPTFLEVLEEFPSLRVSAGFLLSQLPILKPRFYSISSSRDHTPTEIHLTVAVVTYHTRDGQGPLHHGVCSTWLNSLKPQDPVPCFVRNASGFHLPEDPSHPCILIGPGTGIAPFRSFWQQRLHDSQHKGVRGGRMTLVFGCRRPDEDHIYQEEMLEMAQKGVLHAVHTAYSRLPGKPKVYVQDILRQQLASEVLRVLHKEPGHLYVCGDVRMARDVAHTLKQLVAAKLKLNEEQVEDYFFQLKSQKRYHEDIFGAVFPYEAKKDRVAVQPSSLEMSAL
Nitric oxide synthase (neuronal, human recombinant) nNOS, sequence (P29475 whole entry): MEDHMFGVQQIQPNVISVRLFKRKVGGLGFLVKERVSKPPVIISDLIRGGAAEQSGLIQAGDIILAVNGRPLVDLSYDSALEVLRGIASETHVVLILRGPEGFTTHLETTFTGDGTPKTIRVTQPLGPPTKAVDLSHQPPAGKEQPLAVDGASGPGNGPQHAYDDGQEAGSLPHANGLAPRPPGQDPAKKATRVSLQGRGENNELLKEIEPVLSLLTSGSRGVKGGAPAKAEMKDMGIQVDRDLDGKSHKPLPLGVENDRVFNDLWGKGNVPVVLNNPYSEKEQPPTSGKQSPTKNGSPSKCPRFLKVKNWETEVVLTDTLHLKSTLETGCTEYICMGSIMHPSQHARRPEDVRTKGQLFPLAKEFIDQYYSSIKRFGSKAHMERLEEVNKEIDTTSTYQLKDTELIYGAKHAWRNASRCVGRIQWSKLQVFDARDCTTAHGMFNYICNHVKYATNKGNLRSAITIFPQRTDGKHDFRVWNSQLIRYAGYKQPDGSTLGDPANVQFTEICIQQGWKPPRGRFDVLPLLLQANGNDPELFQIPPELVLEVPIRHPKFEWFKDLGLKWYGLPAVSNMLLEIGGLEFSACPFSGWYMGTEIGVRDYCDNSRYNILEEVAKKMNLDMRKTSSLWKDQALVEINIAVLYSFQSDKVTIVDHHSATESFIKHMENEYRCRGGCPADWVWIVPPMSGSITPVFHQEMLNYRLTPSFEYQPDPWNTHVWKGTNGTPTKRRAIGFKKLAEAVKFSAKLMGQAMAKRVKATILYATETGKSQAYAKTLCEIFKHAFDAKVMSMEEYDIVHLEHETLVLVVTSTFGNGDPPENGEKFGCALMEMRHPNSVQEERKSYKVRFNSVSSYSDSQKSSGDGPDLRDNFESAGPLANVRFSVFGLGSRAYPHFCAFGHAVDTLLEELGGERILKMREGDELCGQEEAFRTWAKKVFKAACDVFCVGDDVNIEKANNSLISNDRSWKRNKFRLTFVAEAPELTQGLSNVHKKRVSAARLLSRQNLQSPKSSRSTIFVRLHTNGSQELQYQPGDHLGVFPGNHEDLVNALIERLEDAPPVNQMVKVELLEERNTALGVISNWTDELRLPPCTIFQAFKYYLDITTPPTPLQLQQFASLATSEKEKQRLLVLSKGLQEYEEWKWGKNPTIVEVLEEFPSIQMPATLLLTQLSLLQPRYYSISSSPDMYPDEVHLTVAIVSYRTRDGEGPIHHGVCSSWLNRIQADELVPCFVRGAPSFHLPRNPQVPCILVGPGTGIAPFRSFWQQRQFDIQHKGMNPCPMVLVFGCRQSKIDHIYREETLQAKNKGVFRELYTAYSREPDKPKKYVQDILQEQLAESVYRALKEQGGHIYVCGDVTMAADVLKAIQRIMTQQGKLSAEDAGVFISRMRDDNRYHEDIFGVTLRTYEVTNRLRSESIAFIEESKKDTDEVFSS
Nitric oxide synthase (endothelial, human recombinant) eNOS, sequence (P29474 2-1203): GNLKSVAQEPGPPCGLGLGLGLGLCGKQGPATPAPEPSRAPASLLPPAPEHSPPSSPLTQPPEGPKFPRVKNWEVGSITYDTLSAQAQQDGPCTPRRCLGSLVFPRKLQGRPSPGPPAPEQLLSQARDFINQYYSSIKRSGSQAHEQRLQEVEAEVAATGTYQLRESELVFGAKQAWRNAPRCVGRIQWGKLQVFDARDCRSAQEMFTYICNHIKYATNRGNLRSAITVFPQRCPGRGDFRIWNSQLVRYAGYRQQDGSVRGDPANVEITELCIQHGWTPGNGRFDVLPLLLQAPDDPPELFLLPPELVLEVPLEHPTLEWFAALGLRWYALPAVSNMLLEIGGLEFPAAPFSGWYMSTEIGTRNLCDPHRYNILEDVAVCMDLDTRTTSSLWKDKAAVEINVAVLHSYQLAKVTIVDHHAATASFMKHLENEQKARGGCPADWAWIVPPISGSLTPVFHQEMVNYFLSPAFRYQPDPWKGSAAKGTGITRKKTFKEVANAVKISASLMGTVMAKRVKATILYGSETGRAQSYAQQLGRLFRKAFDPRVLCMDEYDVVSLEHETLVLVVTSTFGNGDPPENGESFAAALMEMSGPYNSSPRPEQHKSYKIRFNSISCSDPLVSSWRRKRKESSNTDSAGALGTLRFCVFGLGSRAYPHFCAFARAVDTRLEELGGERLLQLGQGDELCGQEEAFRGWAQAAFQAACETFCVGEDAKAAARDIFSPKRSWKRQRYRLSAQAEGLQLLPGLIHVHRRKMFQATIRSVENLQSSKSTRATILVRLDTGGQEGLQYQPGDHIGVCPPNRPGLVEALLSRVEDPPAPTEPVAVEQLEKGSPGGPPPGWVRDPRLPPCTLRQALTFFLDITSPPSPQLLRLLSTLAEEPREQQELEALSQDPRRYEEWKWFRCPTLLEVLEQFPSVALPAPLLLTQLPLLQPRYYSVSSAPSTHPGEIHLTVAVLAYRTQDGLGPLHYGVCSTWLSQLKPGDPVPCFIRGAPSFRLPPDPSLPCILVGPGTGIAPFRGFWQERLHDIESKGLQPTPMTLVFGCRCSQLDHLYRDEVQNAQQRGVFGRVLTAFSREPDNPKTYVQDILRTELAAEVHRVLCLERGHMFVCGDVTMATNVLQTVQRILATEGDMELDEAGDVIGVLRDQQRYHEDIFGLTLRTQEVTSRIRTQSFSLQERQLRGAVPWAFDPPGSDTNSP

On to `CN1CCC(N2CCCc3cc(NC(=N)c4cccs4)ccc32)C1` (stereo not shown) [Example 35, N-(1-(1-Methylpyrrolidin-3-yl)-1,2,3,4-tetrahydroquinolin-6-yl)thiophene-2-carboximidamide], for which the figures for the pIC50 in assay [1], in assay [2] and in assay [3] were 6.44, 5.31 and 4.56, respectively.

On to `CNCCN1CCCc2cc(NC(=N)c3cccs3)cc(F)c21.Cl.Cl` [Example 52, N-(8-fluoro-1-(2-(methylamino)ethyl)-1,2,3,4-tetrahydroquinolin-6-yl)thiophene-2-carboximidamide dihydrochloride], for which the “Selectivity eNOS/nNOS” value in assay [1] (setting [4]) is 45. Besides, the pIC50 in assay [1] (setting [5]) was 6.52; in assay [3] (setting [6]), 4.87.

As to `N=C(Nc1ccc2c(c1)CCCC(=O)N2CCN1CCCC1)c1cccs1` [Example 26, N-(2-Oxo-1-(2-(pyrrolidin-1-yl)ethyl)-2,3,4,5-tetrahydro-1H-benzo[b]azepin-7-yl)thiophene-2-carboximidamide], in assay [1] (setting [4]), the “Selectivity eNOS/nNOS” value was 8.1. Besides, the pIC50 is 5.00 in assay [1] (setting [5]), less than 4.00 in assay [2] and 4.10 in assay [3] (setting [6]).

For `CC(CN1CCCc2cc(NC(=N)c3cccs3)ccc21)N1CCCC1` (stereo not shown) [Example 16, N-(1-(2-(pyrrolidin-1-yl)propyl)-1,2,3,4-tetrahydroquinolin-6-yl)thiophene-2-carboximidamide], the “Selectivity eNOS/nNOS” value in assay [1] (setting [4]) was 48.1. Also, the pIC50 in assay [1] (setting [5]) is 6.15; in assay [2], 4.71; in assay [3] (setting [6]), 4.47.

In the case of `CCN(CC)CCCN1C(=O)CCc2cc(NC(=N)c3cccs3)ccc21` [Example 7, N-(1-(3-(diethylamino)propyl)-2-oxo-1,2,3,4-tetrahydroquinolin-6-yl)thiophene-2-carboximidamide], in assay [1], the “Selectivity eNOS/nNOS” value came to 16. The pIC50 in assay [1] (setting [5]) is 6.06; in assay [2], less than 4.00; in assay [3] (setting [6]) it was 4.86.

Consider `CN(C)CCN1C(=O)CCCc2cc(NC(=N)c3cccs3)ccc21` [Example 25, N-(1-(2-(Dimethylamino)ethyl)-2-oxo-2,3,4,5-tetrahydro-1H-benzo[b]azepin-7-yl)thiophene-2-carboximidamide], for which, in assay [1] (setting [4]), the “Selectivity eNOS/nNOS” value was 12.3. Also, the negative-log IC50 (pIC50) was 4.91 in assay [1] (setting [5]), less than 4.00 in assay [2] and 3.82 in assay [3] (setting [6]).

`N=C(Nc1ccc2c(c1)CCC(=O)N2CCCN1CCCCC1)c1cccs1` [Example 9, N-(1-(3-(piperidin-1-yl)propyl)-2-oxo-1,2,3,4-tetrahydroquinolin-6-yl)thiophene-2-carboximidamide]: in assay [1] (setting [4]), the “Selectivity eNOS/nNOS” value was determined as 12.8. The pIC50 in assay [1] (setting [5]) was 6.10; in assay [3] (setting [6]) it was 4.99.

For the molecule `CCN(CC)CCN1C(=O)CCc2cc(NC(=N)c3cccs3)ccc21` [Example 2, N-(1-(2-(diethylamino)ethyl)-2-oxo-1,2,3,4-tetrahydroquinolin-6-yl)thiophene-2-carboximidamide], the negative-log IC50 (pIC50) in assay [1] is 5.66; in assay [2] it was 4.66; in assay [3], 4.13.

For the molecule `N=C(Nc1ccc2c(c1)CCN2CCN1CCCC1)c1cccs1` [Example 67, N-(1-(2-(Pyrrolidin-1-yl)ethyl)indolin-5-yl)thiophene-2-carboximidamide], in assay [1] (setting [4]), the “Selectivity eNOS/nNOS” value came out at 292. The pIC50 in assay [1] (setting [5]) is 7.04; in assay [3] (setting [6]), 4.57.

Take `CN(C)CCCC1Cc2cc(NC(=N)c3cccs3)ccc2NC1=O.Cl.Cl` (stereo not shown) [Example 10, N-(3-(3-(dimethylamino)propyl)-2-oxo-1,2,3,4-tetrahydroquinolin-6-yl)thiophene-2-carboximidamide dihydrochloride]: the “Selectivity eNOS/nNOS” value in assay [1] (setting [4]) was 54.5. The pIC50 in assay [1] (setting [5]) was 6.70; in assay [2], less than 4.00; in assay [3] (setting [6]) it was 4.97.

Turning to `CN1CCC(N2CCCCc3cc(NC(=N)c4cccs4)ccc32)C1` (stereo not shown) [Example 46, N-(1-(1-Methylpyrrolidin-3-yl)-2,3,4,5-tetrahydro-1H-benzo[b]azepin-7-yl)thiophene-2-carboximidamide], the pIC50 was 7.10 in assay [1] and 4.22 in assay [3].

Consider `CN(C)CCN1C(=O)CCCc2cccc(NC(=N)c3cccs3)c21` [Example 33, N-(1-(2-(Dimethylamino)ethyl)-2-oxo-2,3,4,5-tetrahydro-1H-benzo[b]azepin-9-yl)thiophene-2-carboximidamide], for which the “Selectivity eNOS/nNOS” value in assay [1] (setting [4]) was found to be 90. Moreover, the figures for the negative-log IC50 (pIC50) in assay [1] (setting [5]), in assay [2] and in assay [3] (setting [6]) were 5.66, less than 4.00 and 3.71, respectively.

Consider `CN(C)CCN1C(=O)CCc2cc(NC(=N)c3cccs3)cc(F)c21` [Example 41, N-(1-(2-(Dimethylamino)ethyl)-8-fluoro-2-oxo-1,2,3,4-tetrahydroquinolin-6-yl)thiophene-2-carboximidamide], for which the pIC50 in assay [1] (setting [5]) is 5.48; in assay [2] it was 5.49; in assay [3] it was 3.71.

With `N=C(Nc1ccc2c(c1)CCC(=O)N2CCCN1CCCC1)c1cccs1` [Example 8, N-(1-(3-(pyrrolidin-1-yl)propyl)-2-oxo-1,2,3,4-tetrahydroquinolin-6-yl)thiophene-2-carboximidamide], the pIC50 in assay [3] is 4.61.

As to `CN1CCCC1CCN1C(=O)CCc2cc(NC(=N)c3cccs3)ccc21` (stereo not shown) [Example 13, N-(1-(2-(1-methylpyrrolidin-2-yl)ethyl)-2-oxo-1,2,3,4-tetrahydroquinolin-6-yl)thiophene-2-carboximidamide], in assay [1] (setting [4]), the “Selectivity eNOS/nNOS” value is 62.6. Besides, the pIC50 in assay [1] (setting [5]) was 5.96; in assay [3] (setting [6]), 4.16.

Consider `CN1CCC(N2CCc3cc(NC(=N)c4cccs4)ccc32)C1` (stereo not shown) [Example 50, N-(1-(1-Methylpyrrolidin-3-yl)indolin-5-yl)thiophene-2-carboximidamide], for which the pIC50 in assay [1] (setting [5]) was 6.37; in assay [3] (setting [6]) it was 4.67.

Regarding `N=C(Nc1ccc2c(c1)CCCN2CCN1CCOCC1)c1cccs1` [Example 64, N-(1-(2-morpholinoethyl)-1,2,3,4-tetrahydroquinolin-6-yl)thiophene-2-carboximidamide], in assay [1] (setting [4]), the “Selectivity eNOS/nNOS” value is reported as 121. In addition, the pIC50 was 6.17 in assay [1] (setting [5]) and 4.08 in assay [3] (setting [6]).

Turning to `N=C(Nc1ccc2c(c1)CCCCN2CCN1CCCCC1)c1cccs1` [Example 40, N-(1-(2-(Piperidin-1-yl)ethyl)-2,3,4,5-tetrahydro-1H-benzo[b]azepin-7-yl)thiophene-2-carboximidamide], the pIC50 is 5.72 in assay [1] (setting [5]), less than 4.00 in assay [2] and 4.25 in assay [3].

As to `CN1CCCC1CCN1CCCCc2cc(NC(=N)c3cccs3)ccc21` (stereo not shown) [Example 45, N-(1-(2-(1-Methylpyrrolidin-2-yl)ethyl)-2,3,4,5-tetrahydro-1H-benzo[b]azepin-7-yl)thiophene-2-carboximidamide], the pIC50 in assay [1] (setting [5]) was 5.74; in assay [3] it was 4.51.

For `CNCCN1CCCCc2cc(NC(=N)c3cccs3)ccc21` [Example 36, N-(1-(2-(Methylamino)ethyl)-2,3,4,5-tetrahydro-1H-benzo[b]azepin-7-yl)thiophene-2-carboximidamide], the values for the pIC50 in assay [1] (setting [5]) and in assay [3] were 6.42 and 4.33, respectively.

For `CNC1CCC(N2CCc3cc(NC(=N)c4cccs4)ccc32)CC1` (stereo not shown) [Example 71, N-(1-(4-(Methylamino)cyclohexyl)indolin-5-yl)thiophene-2-carboximidamide], the pIC50 in assay [1] (setting [5]) was 6.98; in assay [3] (setting [6]), 4.47.

`N=C(Nc1ccc2c(c1)CCN2C1CCNC1)c1cccs1` (stereo not shown) [Example 49, N-(1-(Pyrrolidin-3-yl)indolin-5-yl)thiophene-2-carboximidamide]: the pIC50 in assay [1] (setting [5]) is 7.10; in assay [3] (setting [6]), 5.26.

With `CCN(CC)CCN1CCCc2cc(NC(=N)c3cccs3)ccc21` [Example 53, N-(1-(2-(diethylamino)ethyl)-1,2,3,4-tetrahydroquinolin-6-yl)thiophene-2-carboximidamide], in assay [1] (setting [5]), the pIC50 is 6.60.

In the case of `CCN(C)CCN1CCCc2cc(NC(=N)c3cccs3)ccc21` [Example 51, N-(1-(2-(ethyl(methyl)amino)ethyl)-1,2,3,4-tetrahydroquinolin-6-yl)thiophene-2-carboximidamide], the “Selectivity eNOS/nNOS” value in assay [1] was 370. The negative logarithm of the IC50 (pIC50) is 7.05 in assay [1] (setting [5]) and 4.48 in assay [3].

Consider `CN(C)CCN1CCc2cc(NC(=N)c3cccs3)ccc21` [Example 68, N-(1-(2-(Dimethylamino)ethyl)indolin-5-yl)thiophene-2-carboximidamide], for which the “Selectivity eNOS/nNOS” value in assay [1] (setting [4]) amounted to 316. Also, the pIC50 in assay [1] (setting [5]) is 7.39; in assay [3] (setting [6]), 4.89.

Turning to `CNC1CCC(N2CCc3cc(NC(=N)c4cccs4)ccc32)CC1` (stereo not shown) [Example 70, N-(1-(4-(Methylamino)cyclohexyl)indolin-5-yl)thiophene-2-carboximidamide], the “Selectivity eNOS/nNOS” value in assay [1] (setting [4]) is listed as 86.5. The pIC50 in assay [1] (setting [5]) is 6.68; in assay [3] (setting [6]), 4.75.

For the molecule `N=C(Nc1ccc2c(c1)CCC(=O)N2CCCN1CCOCC1)c1cccs1` [Example 5, N-(1-(3-morpholinopropyl)-2-oxo-1,2,3,4-tetrahydroquinolin-6-yl)thiophene-2-carboximidamide], the “Selectivity eNOS/nNOS” value in assay [1] is 19.2. Besides, the pIC50 in assay [1] (setting [5]) was 5.26; in assay [3] (setting [6]), 3.98.

On to `CN(CCO)CCCN1CCCc2cc(NC(=N)c3cccs3)ccc21` [Example 69, N-(1-(3-((2-Hydroxyethyl)(methyl)amino)propyl)-1,2,3,4-tetrahydroquinolin-6-yl)thiophene-2-carboximidamide], for which, in assay [1] (setting [4]), the “Selectivity eNOS/nNOS” value is recorded as 511. Besides, the pIC50 in assay [1] (setting [5]) is 7.11; in assay [3] (setting [6]) it was 4.40.

In the case of `CNCCCN1CCCc2cc(NC(=N)c3cccs3)ccc21` [Example 63, N-(1-(3-(methylamino)propyl)-2,3,4-tetrahydroquinolin-6-yl)thiophene-2-carboximidamide], the pIC50 is 6.63 in assay [1] (setting [5]) and 4.65 in assay [3].
